# Laboratory results taken from patent publication US9062041B2 (Bayer Intellectual Property GmbH, priority 2011, dated 2015).
# What was measured:
# Type in all cases: cell-based
# [1] = molecular target: T1, human PGD receptor (Homo sapiens, UniProt Q13258); experiment: cAMP antagonism test on the human prostaglandin D receptor (HTRF cAMP detection); conditions: selectivity towards hDP, IC50 measured by cAMP antagonism test
# T1 sequence (Q13258 1-359): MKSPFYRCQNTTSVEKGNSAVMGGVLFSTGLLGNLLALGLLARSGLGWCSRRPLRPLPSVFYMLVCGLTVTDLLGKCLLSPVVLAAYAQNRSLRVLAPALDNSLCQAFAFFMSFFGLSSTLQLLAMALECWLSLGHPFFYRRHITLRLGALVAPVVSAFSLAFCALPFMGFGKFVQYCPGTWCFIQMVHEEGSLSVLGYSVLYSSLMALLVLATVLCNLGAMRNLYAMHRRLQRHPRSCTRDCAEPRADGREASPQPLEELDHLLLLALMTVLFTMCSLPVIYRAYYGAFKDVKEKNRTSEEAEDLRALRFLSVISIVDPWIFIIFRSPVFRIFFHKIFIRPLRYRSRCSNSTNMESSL
# Procedure, shortened: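 HTRF competition read-out (665/620 nm ratio ×10000), where higher FRET means less cAMP, i.e. antagonism. Compounds (0.8 nM–16.5 μM) were preincubated 20 min at RT with cells and cAMP-d2, PGD2 (3× solution, 6 nM) in IBMX-containing PBS added for 30 min at RT, then cells lysed 20 min.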
# [2] = molecular target: EP2 subtype of the human PGE2 receptor (Homo sapiens, UniProt P43116); experiment: cAMP antagonism test on the human EP2 receptor (HTRF cAMP detection); conditions: hEP2 receptor, read-out: Antagonism hEP2 IC50
# Procedure, shortened: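 Read-out is a competitive HTRF for cAMP: lysate cAMP displaces cAMP-d2 from Eu cryptate-labelled antibody, and antagonism raises the 665/620 nm ratio. Compound (0.8 nM–16.5 μM) added to EP2 cells 20 min at RT before 60 min PGE2 challenge (3× stock 1.5 nM) with IBMX, followed by 20 min lysis.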
# [3] = molecular target: EP4 subtype of the human PGE2 receptor (Homo sapiens, UniProt P35408); experiment: cAMP antagonism test on the human EP4 receptor (HTRF cAMP detection); conditions: selectivity towards hEP4, IC50 measured by cAMP antagonism test
# Procedure, shortened: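 Competitive HTRF cAMP read-out (cAMP-d2 vs Eu-cryptate anti-cAMP antibody, 665/620 nm ratio) on lysed human EP4 cells. Compound (0.8 nM–16.5 μM) applied 20 min at RT before 60 min PGE2 challenge (3× solution 0.3 nM, IBMX present); 20 min lysis precedes reading.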
# Chain of EP2 subtype of the human PGE2 receptor (P43116 whole entry): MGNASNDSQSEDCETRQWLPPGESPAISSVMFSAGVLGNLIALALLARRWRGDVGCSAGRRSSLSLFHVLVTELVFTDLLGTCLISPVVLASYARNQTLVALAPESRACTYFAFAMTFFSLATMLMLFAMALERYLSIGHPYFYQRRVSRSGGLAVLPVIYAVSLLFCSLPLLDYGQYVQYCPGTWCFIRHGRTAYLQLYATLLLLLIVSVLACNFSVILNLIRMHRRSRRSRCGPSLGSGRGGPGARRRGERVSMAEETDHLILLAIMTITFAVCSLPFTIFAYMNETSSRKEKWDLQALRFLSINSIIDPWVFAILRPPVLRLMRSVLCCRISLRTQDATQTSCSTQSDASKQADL
# Chain of EP4 subtype of the human PGE2 receptor (P35408 whole entry): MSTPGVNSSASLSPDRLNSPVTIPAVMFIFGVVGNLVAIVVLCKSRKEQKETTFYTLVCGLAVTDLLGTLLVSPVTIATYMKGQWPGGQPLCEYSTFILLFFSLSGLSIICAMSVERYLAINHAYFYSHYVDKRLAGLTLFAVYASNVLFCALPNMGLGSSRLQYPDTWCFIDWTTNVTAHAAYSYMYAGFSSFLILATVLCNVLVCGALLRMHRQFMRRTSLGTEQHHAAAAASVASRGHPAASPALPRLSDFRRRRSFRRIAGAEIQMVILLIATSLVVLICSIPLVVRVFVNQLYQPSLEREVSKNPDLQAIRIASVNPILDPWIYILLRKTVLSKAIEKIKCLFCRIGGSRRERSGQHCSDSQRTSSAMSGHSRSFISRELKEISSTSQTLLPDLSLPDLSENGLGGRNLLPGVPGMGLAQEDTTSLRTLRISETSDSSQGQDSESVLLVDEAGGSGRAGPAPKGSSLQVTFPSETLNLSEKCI
Structure (SMILES),Selectivity hEP2/hDP [1],IC50 [2] [nM],Selectivity hEP2/hEP4 [3]
"Cc1c(C(=O)NCCC#N)ccc2nn(CC3CCN(C(=O)c4ccc(-c5ccc(F)cc5)cc4)CC3)cc12 [Example 407, N-(2-cyanoethyl)-2-({1-[(4′-fluorobiphenyl-4-yl)carbonyl]piperidin-4-yl}-methyl)-4-methyl-2H-indazol-5-carboxamide]",xxx (xxx > 100),11.6,xxx (xxx > 100)
"COCCNC(=O)c1ccc2nn(CC3CCN(C(=O)c4ccc(-c5ccc(C(F)(F)F)cc5)cc4)CC3)cc2c1C [Example 360, N-(2-methoxyethyl)-4-methyl-2-[(1-{[4′-(trifluoromethyl)biphenyl-4-yl]-carbonyl}piperidin-4-yl)methyl]-2H-indazol-5-carboxamide]",xxx (xxx > 100),6.27,xxx (xxx > 100)
"COCCNC(=O)c1ccc2nn(CC3CN(C(=O)c4cc5cc(OC)ccc5n4C)C3)cc2c1C [Example 172, N-(2-methoxyethyl)-2-({1-[(5-methoxy-1-methyl-1H-indol-2-yl)carbonyl]azetidin-3-yl}methyl)-4-methyl-2H-indazol-5-carboxamide]",xxx (xxx > 100),3.16,xxx (xxx > 100)
"COCCNC(=O)c1ccc2nn(CC3CCN(C(=O)c4ccc(Oc5nccc(C(F)(F)F)n5)cc4)CC3)cc2c1C [Example 347, N-(2-methoxyethyl)-4-methyl-2-{[1-(4-{[4-(trifluoromethyl)pyrimidin-2-yl]-oxy}benzoyl)piperidin-4-yl]methyl}-2H-indazol-5-carboxamide]",xxx (xxx > 100),7.88,xxx (xxx > 100)
"Cc1ccc(-c2ccc(C(=O)N3CCC(Cn4cc5c(C)c(C(=O)NCC(F)(F)F)ccc5n4)CC3)cc2)cn1 [Example 319, 4-methyl-2-({1-[4-(6-methylpyridin-3-yl)benzoyl]piperidin-4-yl}methyl)-N-(2,2,2-trifluoroethyl)-2H-indazol-5-carboxamide]",xx (xx: 10-100),315,xx (xx: 10-100)
"Cc1cc2nn(CC3CCN(C(=O)c4cccc(OC(F)(F)F)c4)CC3)cc2cc1C(=O)NCCN1CCOCC1 [Example 76, 6-methyl-N-(2-morpholinoethyl)-2-({1-[3-(trifluorometh-oxy)benzoyl]piperidin-4-yl}methyl)-2H-indazol-5-carboxamide]",xx (xx: 10-100),179,xx (xx: 10-100)
"COCCNC(=O)c1ccc2nn(CC3CN(C(=O)c4ccc5cc(OC)ccc5c4)C3)cc2c1C [Example 176, N-(2-methoxyethyl)-2-{[1-(6-methoxy-2-naphthoyl)azetidin-3-yl]methyl}-4-methyl-2H-indazol-5-carboxamide]",xxx (xxx > 100),7.77,xxx (xxx > 100)
"Cc1c(C(=O)NCC2CCCCO2)ccc2nn(CC3CCN(C(=O)c4ccc(Oc5ccc(C(F)(F)F)cc5)cc4)CC3)cc12 (single isomer, unassigned) [Example 416, (R or S)-4-methyl-N-(3,4,5,6-tetrahydro-2H-pyran-2-ylmethyl)-2-[(1-{4-[4-(trifluoromethyl)phenoxy]benzoyl}piperidin-4-yl)methyl]-2H-indazol-5-carboxamide]",xxx (xxx > 100),10.7,xxx (xxx > 100)
"COCCNC(=O)c1ccc2nn(CC3CCN(C(=O)c4ccc(OC(F)(F)F)c(F)c4)CC3)cc2c1OC [Example 272, 2-({1-[3-fluoro-4-(trifluoromethoxy)benzoyl]piperidin-4-yl}methyl)-4-methoxy-N-(2-methoxyethyl)-2H-indazol-5-carboxamide]",xxx (xxx > 100),23.7,xxx (xxx > 100)
"COCCNC(=O)c1ccc2nn(CC3CCN(C(=O)c4ccc(Oc5ccc(C)cc5)cc4)CC3)cc2c1C [Example 15, N-(2-methoxyethyl)-4-methyl-2-({1-[4-(4-methylphenoxy)-benzoyl]piperidin-4-yl}methyl)-2H-indazol-5-carboxamide]",xxx (xxx > 100),4.17,xxx (xxx > 100)
"Cc1c(C(=O)NCCOC2CC2)ccc2nn(CC3CN(C(=O)c4ccc(OC(F)(F)F)cc4)C3)cc12 [Example 136, N-[2-(cyclopropyloxy)ethyl]-4-methyl-2-({1-[4-(trifluoromethoxy)benzoyl]azetidin-3-yl}methyl)-2H-indazol-5-carboxamide]",xxx (xxx > 100),6.59,xxx (xxx > 100)
"COCCNC(=O)c1ccc2nn(CC3CCN(C(=O)c4ccc(Oc5ccc(C#N)cn5)cc4)CC3)cc2c1C [Example 356, 2-[(1-{4-[(5-cyanopyridin-2-yl)oxy]benzoyl}piperidin-4-yl)methyl]-N-(2-methoxyethyl)-4-methyl-2H-indazol-5-carboxamide]",xxx (xxx > 100),63.6,xxx (xxx > 100)
"COCCNC(=O)c1ccc2nn(CC3CCN(C(=O)c4ccc(C)cc4F)CC3)cc2c1C [Example 9, 2-{[1-(2-fluoro-4-methylbenzoyl)piperidin-4-yl]methyl}-N-(2-methoxyethyl)-4-methyl-2H-indazol-5-carboxamide]",xxx (xxx > 100),17.2,xxx (xxx > 100)
"Cc1c(C(=O)NCC(C)OCC2CC2)ccc2nn(CC3CCN(C(=O)c4ccc(-c5ccc(F)cc5)cc4)CC3)cc12 (racemic) [Example 105, (+/−)-N-[2-(cyclo-propylmethoxy)-propyl]-2-({l-[(4′-fluorobiphenyl-4-yl)carbonyl]-piperidin-4-yl}-methyl)-4-methyl-2H-indazol-5-carboxamide]",xx (xx: 10-100),285,xx (xx: 10-100)
"Cc1c(C(=O)NCCS(C)(=O)=O)ccc2nn(CC3CCN(C(=O)c4ccc(-c5ccc(F)cc5)cc4)CC3)cc12 [Example 408, 2-({1-[(4′-fluorobiphenyl-4-yl)carbonyl]piperidin-4-yl}methyl)-N-(2-mesylethyl)-4-methyl-2H-indazol-5-carboxamide]",xxx (xxx > 100),23.5,xxx (xxx > 100)
"Cc1c(C(=O)NCC(F)(F)F)ccc2nn(CC3CCN(C(=O)c4ccc(OC(F)(F)F)cc4)CC3)cc12 [Example 73, 4-methyl-N-(2,2,2-trifluoroethyl)-2-({1-[4-(trifluoromethoxy)benzoyl]piperidin-4-yl}methyl)-2H-indazol-5-carboxamide]",xxx (xxx > 100),77.8,xxx (xxx > 100)
"Cc1c(C(=O)NCCOCC2CC2)ccc2nn(CC3CCN(C(=O)c4ccc(C(F)(F)F)cc4)CC3)cc12 [Example 87, N-[2-(cyclopropyl-methoxy)ethyl]-4-methyl-2-({l-[4-(tri-fluoromethyl)benzoyl]piperidin-4-yl}-methyl)-2H-indazol-5-carboxamide]",xxx (xxx > 100),24,xxx (xxx > 100)
"COCCNC(=O)c1ccc2nn(CC3CCN(C(=O)c4cn(C)c5ccccc45)CC3)cc2c1C [Example 331, N-(2-methoxyethyl)-4-methyl-2-({1-[(1-methyl-1H-indol-3-yl)carbonyl]-piperidin-4-yl}methyl)-2H-indazol-5-carboxamide]",xxx (xxx > 100),9.47,xxx (xxx > 100)
"Cc1cc2nn(CC3CCN(C(=O)c4ccc(C(F)(F)F)cc4)CC3)cc2cc1C(=O)NCCN1CCOCC1 [Example 79, 6-methyl-N-(2-morpholinoethyl)-2-({1-[4-(trifluoro-methyl)benzoyl]-piperidin-4-yl}-methyl)-2H-indazol-5-carboxamide]",xxx (xxx > 100),125,xxx (xxx > 100)
"Cc1cc2nn(CC3CCN(C(=O)c4ccc(OC(F)(F)F)cc4)CC3)cc2cc1C(=O)NCCN1CCOCC1 [Example 75, 6-methyl-N-(2-morpholinoethyl)-2-({1-[4-(trifluorometh-oxy)benzoyl]piperidin-4-yl}methyl)-2H-indazol-5-carboxamide]",xxx (xxx > 100),67,xxx (xxx > 100)
